# Measurements as given in article PMC12049818, “Identification of NUV-244 as a PNPLA3 I148M degrading small molecule” (iScience, 2025).
# Columns and labels:
# PNPLA3-tagRFP = molecular target: T1, PNPLA3-tagRFP (Homo sapiens, UniProt Q9NST1); assay: Huh7 PNPLA3-tagRFP (WT) reduction on lipid droplets; assay type: cell-based; conditions: representative dose-response curve, Figure 3B
# T1 construct: host or cells: Huh7
# T1 sequence (Q9NST1 1-481): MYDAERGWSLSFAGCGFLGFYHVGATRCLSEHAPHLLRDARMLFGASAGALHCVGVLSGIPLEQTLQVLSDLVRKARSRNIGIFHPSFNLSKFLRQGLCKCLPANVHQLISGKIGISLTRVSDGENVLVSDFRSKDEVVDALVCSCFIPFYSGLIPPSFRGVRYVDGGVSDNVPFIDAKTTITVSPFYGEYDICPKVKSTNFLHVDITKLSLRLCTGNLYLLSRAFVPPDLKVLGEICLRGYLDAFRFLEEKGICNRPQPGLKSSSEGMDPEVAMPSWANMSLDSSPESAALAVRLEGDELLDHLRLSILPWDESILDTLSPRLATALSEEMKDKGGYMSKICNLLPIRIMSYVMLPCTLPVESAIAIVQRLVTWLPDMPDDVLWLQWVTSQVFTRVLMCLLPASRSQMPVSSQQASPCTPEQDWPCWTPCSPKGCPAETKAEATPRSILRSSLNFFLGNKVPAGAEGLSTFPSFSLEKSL
# Description: To confirm activity, NUV-244 was resynthesized. […] Next, to evaluate the specificity against PNPLA3 WT, Huh7 cells expressing PNPLA3-tagRFP were generated (Figures 3A and S3A). Like the mutant, PNPLA3-tagRFP localizes to lipid droplets in Huh7 cells and NUV-244 dose-dependently leads to a decrease of PNPLA3-tagRFP with a similar potency as for the mutant (Figure 3B).
# For dose-response cells were seeded at 4000 c/30 μl per well in 384 well plates (Revvity, Waltham, MA, USA, PhenoPlate 384-well microplate, #6057308) and stored in a 37°C incubator with 5% CO2 and 95% humidity overnight. Compounds, serially diluted, and DMSO controls were added, and cells were incubated for another 24h. […]
# Images were analyzed using Harmony (Revvity) and MetaXpress software (Molecular Devices, USA) to quantify lipid droplet morphology and PNPLA3 I148M-tagRFP intensity.
# Assay plates were evaluated based on Z’ scores (>0.6) and signal-to-background ratio (>12) using Genedata Screener® for HTS and Condoseo modules (Genedata, Switzerland). […] Automated image analysis routines were set up to quantify the number, morphology and intensity of nuclei, lipid droplets and the intensity of PNPLA3 I148M-tagRFP on lipid droplets. […]
# PNPLA3 = molecular target: T2, PNPLA3 (Homo sapiens, UniProt Q9NST1); assay: Huh7 untagged PNPLA3 immunofluorescence on lipid droplets; assay type: cell-based; conditions: anti-PNPLA3 IF; representative curve, Figure 3E
# T2 construct: host or cells: Huh7
# T2 sequence (Q9NST1 1-481): T1 sequence (Q9NST1 1-481)
# Description: Even though C-terminal tagging is reported not to interfere with PNPLA3 localization,[20] we established an assay to exclude the possibility that C-terminal tagging of PNPLA3 with tagRFP could alter PNPLA3 response to NUV-244 on lipid droplets. For this we generated Huh7 cell lines that express untagged variants of PNPLA3 I148M or PNPLA3 WT and visualized PNPLA3 on lipid droplets by immunofluorescence (Figures 3C, 3D, and S3A).
# Cells were fixed with 4% paraformaldehyde for 15 minutes at room temperature. Cells were blocked with 0.2 M glycine, 0.1 mg/mL saponin, and 30 mg/mL bovine serum albumin (BSA) (all Sigma Aldrich) in PBS for 1 hour. Cells were washed 1x with washing buffer (0,1 mg/ml saponin + 1 mg/ml Bovine serum albumin) using a Blue Washer (Blue Cat Bio). Mouse anti-human ADPN (PNPLA3, C-8, #sc-390252, Santa Cruz) and rabbit anti-human PNPLA2 (Sigma Aldrich, #HPA055173-25UL) primary antibodies and appropriate secondary antibodies conjugated with Alexa-Fluor 647 (Jackson ImmunoResearch) were used. […]
# Images were acquired by an Opera Phenix confocal spinning disc microscope system (Revvity, Waltham, MA, USA) with a 20x or 40x water objective at 405 nm (Hoechst), 488 nm (BODIPY) and 647 nm. Quantification was carried out with the Harmony (Revvity, Waltham, MA, USA) or MetaXpress software (Molecular Devices). […]
compound,measurement,setting,value
Cc1cccc(Cc2nc(C)c(C(=O)Nc3cc(O)ccc3Cl)s2)c1 [NUV-244],EC50,PNPLA3-tagRFP,213 nM
same,EC50,PNPLA3,341 nM
